Reference: PubChem BioAssay (NCI)
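48-hour exposure; five concentrations; linearly interpolated endpoints. TGI: total growth inhibition.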

What was measured:
Experiment in all cases: DTP human tumour cell line panel, 48 h
[1] = test system: NCI-H23 lung
[2] = test system: NCI-H460 lung
[3] = test system: U251 CNS
[4] = test system: SN12C renal
[5] = test system: SR leukemia
[6] = test system: SF-539 CNS
[7] = test system: HOP-62 NSCLC
[8] = test system: CCRF-CEM leukemia
[9] = test system: UO-31 renal
[10] = test system: NCI-H226 lung
[11] = test system: SF-295 CNS
[12] = test system: MDA-N
[13] = test system: SK-MEL-28 melanoma
[14] = test system: 786-0 renal
[15] = test system: DMS 114 small cell lung
[16] = test system: OVCAR-4 ovarian
[17] = test system: OVCAR-8 ovarian
[18] = test system: A549 NSCLC
[19] = test system: LXFL 529 NSCLC
[20] = test system: MDA-MB-435
[21] = test system: A498 renal
[22] = test system: SK-MEL-5 melanoma
[23] = test system: SNB-19 CNS
[24] = test system: RPMI-8226 leukemia
[25] = test system: MDA-MB-231 breast
[26] = test system: ACHN renal
[27] = test system: SF-268 CNS
[28] = test system: K-562 leukemia
[29] = test system: UACC-62 melanoma
[30] = test system: MALME-3M melanoma
[31] = test system: KM20L2 colon
[32] = test system: OVCAR-5 ovarian
[33] = test system: NCI-H522 lung
[34] = test system: DLD-1 colon
[35] = test system: PC-3 prostate
[36] = test system: LOX IMVI melanoma
[37] = test system: SK-MEL-2 melanoma
[38] = test system: CAKI-1 renal
[39] = test system: SW-620 colon
[40] = test system: T-47D breast
[41] = test system: HCC-2998 colon
[42] = test system: IGROV1 ovarian
[43] = test system: UACC-257 melanoma
[44] = test system: COLO 205 colon
[45] = test system: MCF7 breast
[46] = test system: RXF 393 renal
[47] = test system: BT-549 breast
[48] = test system: HOP-92 NSCLC
[49] = test system: HCT-15 colon
[50] = test system: HL-60(TB) leukemia
[51] = test system: HT29 colon
[52] = test system: M14 melanoma
[53] = test system: HCT-116 colon
[54] = test system: NCI/ADR-RES ovarian
[55] = test system: EKVX NSCLC
[56] = test system: XF 498 CNS
[57] = test system: KM12 colon
[58] = test system: MOLT-4 leukemia
[59] = test system: SNB-75 CNS
[60] = test system: TK-10 renal
[61] = test system: OVCAR-3 ovarian
[62] = test system: HOP-18 NSCLC
[63] = test system: SNB-78 CNS
[64] = test system: SK-OV-3 ovarian
[65] = test system: M19-MEL melanoma

CC1=NN(C(=O)c2ccccc2O)C(=O)/C1=C/c1ccccc1O
TGI [1]: 20.9 µM
TGI [2]: > 100 µM
TGI [3]: > 100 µM
TGI [4]: 33.7 µM
TGI [5]: 65.4 µM
TGI [6]: 2.45 µM
TGI [7]: 39.4 µM
TGI [8]: > 100 µM
TGI [9]: 1.56 µM
TGI [10]: 16.4 µM
TGI [11]: > 100 µM
TGI [12]: > 100 µM
TGI [13]: > 100 µM
TGI [14]: 44.4 µM
TGI [15]: 8.86 µM
TGI [16]: 68.3 µM
TGI [17]: 64.4 µM
TGI [18]: > 100 µM
TGI [19]: > 100 µM
TGI [20]: > 100 µM
TGI [21]: 0.124 µM
TGI [22]: 14.2 µM
TGI [23]: > 100 µM
TGI [24]: > 100 µM
TGI [25]: > 100 µM
TGI [26]: 33.1 µM
TGI [27]: > 75.4 µM
TGI [28]: > 100 µM
TGI [29]: 7.2 µM
TGI [30]: 74.4 µM
TGI [31]: > 100 µM
TGI [32]: > 93.8 µM
TGI [33]: 17.9 µM
TGI [34]: > 100 µM
TGI [35]: > 100 µM
TGI [36]: 31.9 µM
TGI [37]: > 91.4 µM
TGI [38]: > 27.3 µM
TGI [39]: > 100 µM
TGI [40]: 15.6 µM
TGI [41]: 55.6 µM
TGI [42]: 3.63 µM
TGI [43]: 30.5 µM
TGI [44]: > 89.1 µM
TGI [45]: > 64.2 µM
TGI [46]: 0.924 µM
TGI [47]: 50 µM
TGI [48]: 28.5 µM
TGI [49]: 21.2 µM
TGI [50]: 3.62 µM
TGI [51]: > 100 µM
TGI [52]: 48.4 µM
TGI [53]: > 29.9 µM
TGI [54]: > 36.7 µM
TGI [55]: 41.6 µM
TGI [56]: > 100 µM
TGI [57]: > 100 µM
TGI [58]: 51 µM
TGI [59]: > 67.7 µM
TGI [60]: > 100 µM

CC(C)C1CCC/C=C/C=C/C=C/C=C/C(OC2OC(C)C(O)C(N)C2O)CC2OC(O)(CC(O)CC(O)C(O)CCC(=O)O1)CC(O)C2C(=O)O (configuration not stated)
TGI [3]: > 52.5 µM
TGI [4]: > 52.5 µM
TGI [5]: > 52.5 µM
TGI [6]: > 52.5 µM
TGI [7]: > 52.5 µM
TGI [8]: > 52.5 µM
TGI [9]: > 52.5 µM
TGI [11]: > 52.5 µM
TGI [61]: > 52.5 µM
TGI [13]: > 52.5 µM
TGI [14]: > 52.5 µM
TGI [15]: > 52.5 µM
TGI [17]: > 52.5 µM
TGI [18]: > 52.5 µM
TGI [19]: > 52.5 µM
TGI [62]: > 52.5 µM
TGI [21]: > 52.5 µM
TGI [22]: > 52.5 µM
TGI [23]: > 52.5 µM
TGI [24]: > 52.5 µM
TGI [26]: > 52.5 µM
TGI [27]: > 52.5 µM
TGI [28]: > 52.5 µM
TGI [29]: > 52.5 µM
TGI [30]: > 52.5 µM
TGI [31]: > 52.5 µM
TGI [33]: > 52.5 µM
TGI [38]: > 52.5 µM
TGI [39]: > 52.5 µM
TGI [63]: > 52.5 µM
TGI [42]: > 52.5 µM
TGI [44]: > 52.5 µM
TGI [48]: > 52.5 µM
TGI [49]: > 52.5 µM
TGI [50]: > 52.5 µM
TGI [51]: > 52.5 µM
TGI [52]: > 52.5 µM
TGI [53]: > 52.5 µM
TGI [64]: > 52.5 µM
TGI [65]: > 52.5 µM
TGI [58]: > 52.5 µM
TGI [59]: > 52.5 µM
